Reference: publication PMC7395068, “The evolution of strategies to minimise the risk of human drug-induced liver injury (DILI) in drug discovery and development” (Archives of Toxicology, 2020)
Read-outs that look alike come from different tables or passages of the source.

Assays:
[1] = Plasma free fraction (fu) and unbound Cmax (Cmax,u); format: in vitro ADME, human; details: unbound plasma Cmax
Method: The prediction of DILI severity was evaluated further using the 3D combined HCI assays using plasma-free fraction. The majority of fu values were obtained from literature, when unavailable in-house prediction was utilised. Unbound plasma Cmax concentrations (Cmax,u) were derived by multiplying total plasma Cmax with the corresponding free fraction (fu) for each compound.

HepG2 = system: HepG2; design: method as in Albrecht 2019; details: In vitro Assay; ref Albrecht 2019; cited from earlier work
[2] = cited from earlier work
[3] = system: primary human hepatocytes, NIH3T3 fibroblasts, BSEP, CYP3A4; details: cited from earlier work
HepG2 cells = details: cited from earlier work
[4] = system: THLE or HepG2 cells, isolated mitochondria, BSEP; details: cited from earlier work
PHH [5] = details: cited from earlier work
hLiMTs [6] = details: cited from earlier work
[7] = system: HepG2 C3A spheroid, BSEP, Glu/Gal in HepG2 cells, bioactivation; details: cited from earlier work
[8] = read-out: Human plasma Cmax; total plasma Cmax.tot, median of 9 literature references; cited from earlier work
[9] = plasma free fraction; cited from earlier work
[10] = cited from earlier work; remark: listed apart in the source
PHH [11] = details: In vitro Assay; ref Albrecht 2019; cited from earlier work
[12] = system: THLE-Null and THLE-3A4 cells; details: In vitro Assay; ref Gustafsson 2014; cited from earlier work
[13] = system: HepG2 cells, primary human hepatocytes; details: In vitro Assay; ref Garside 2014; cited from earlier work
[14] = system: isolated mouse liver mitochondria; details: cited from earlier work
[15] = ref Chen 2011; cited from earlier work
rBsep = details: In vitro Assay; ref Dawson 2012; cited from earlier work
hLiMTs [16] = test: Combined HCI (HCS) and cellular ATP 3D assay in hLiMTs; details: for AC50 / minimal effective concentration: Homo sapiens
HepaRG spheroids = test: Combined HCI (HCS) and cellular ATP 3D assay in HepaRG spheroids; details: for AC50 / minimal effective concentration: Homo sapiens
hu-MPCC = details: cited from earlier work
RMPCC's = details: cited from earlier work
[17] = In vitro Assay, ref Schadt 2015
[18] = Modeled in vitro assays (cytotoxicity, mitochondrial dysfunction, BSEP), ref Aleo et al. 2019
[19] = In vitro Assay, ref Proctor 2017
[20] = In vitro Assay, ref Porceddu 2012
[21] = Microtissue model structural based (HCI), combined HCS and ATP, MEC < 25 × Cmax.tot cut-off

Structure (SMILES): NC(=O)N1c2ccccc2C=Cc2ccccc21 [carbamazepine, reference compound]
- Human plasma Cmax,u [1]: 12.190 µM
- Cytotoxicity HepG2 48 hrs (HepG2): +VE
- DILI severity category (Chen et al. [2016]) ([2]; LTKB DILIrank category, ref Chen et al. 2016): Most
- DILI severity category (Chen 2016) ([2]; human DILI classification, LTKB DILIrank, ref Chen et al. 2016): Most
- DILI severity category ([2]; human DILI severity, ref Chen et al.): Most
- DILI +VE (5-8), DILI -VE (-4) ([2]; ref Chen 2016): +VE
- DILI severity category ([2]; ref Chen 2016): vMost-DILI-Concern
- DILI in vitro assay prediction, Schadt (2015) ([3]; BSEP & Metabolism based, ref Schadt et al. 2015): +VE
- Cellular toxicity (3T3 cells) [3, 17]: -VE
- Combined Assay [3, 17]: +VE
- GSH adduct HML [3, 17]: +VE
- Hepatocyte cellular toxicity [3, 17]: -VE
- MitoTox 3T3 [3, 17]: -VE
- TDI CYP3A4 [3, 17]: -VE
- hBSEP inhibition [3, 17]: -VE
- Structural based (HCI) (HepG2 cells; In vitro Assay, ref Tolosa 2012): +VE
- DILI in vitro assay prediction, Tolosa (2012) (HepG2 cells; Structural based (HCI), HepG2, ref Tolosa et al. 2012): +VE
- Partition Hybrid HRM Score ([4]; In vitro Assay, ref Aleo 2019): +VE
- Ro2 Hybrid HRM Score ([4]; In vitro Assay, ref Aleo 2019): +VE
- Partition Hybrid HRM Score ≥4, Aleo (2019) [4, 18]: +VE (Partition Hybrid HRM Score ≥4)
- Partition Hybrid HRM Score ≥8, Aleo (2019) [4, 18]: -VE
- Rule of Two hybrid HRM Score ≥3, Aleo (2019) [4, 18]: +VE (Rule of Two hybrid HRM Score ≥3)
- Rule of Two hybrid HRM Score ≥8, Aleo (2019) [4, 18]: -VE
- PHH/100xCmax, Proctor (2017) (PHH [5]; 2D PHH, ATP, IC50 < 100 × Cmax.tot, ref Proctor et al. 2017): -VE
- PHH/100uM, Proctor (2017) (PHH [5]; 2D PHH, ATP, IC50 threshold 100 µM, ref Proctor et al. 2017): -VE
- PHH ATP <100uM (PHH [5]; [19]): -VE
- hLiMTs ATP <100uM (hLiMTs [6]; [19]): -VE
- hLiMTs/100xCmax, Proctor (2017) (hLiMTs [6]; hLiMTs, ATP, IC50 < 100 × Cmax.tot, ref Proctor et al. 2017): +VE (IC50 < 100 × Cmax.tot)
- hLiMTs/100uM, Proctor (2017) (hLiMTs [6]; hLiMTs, ATP, IC50 threshold 100 µM, ref Proctor et al. 2017): -VE
- Bayesian Machine Learning DILI prediction, Williams (2019) ([7]; Bayesian modeling, ref Williams et al. 2019): +VE
- Bayesian Machine Learning ([7]; In vitro Assay, ref Williams 2019): +VE
- Cmax [8]: 50.8 µM
- fu [9]: 0.240
- Assigned DILI category ([10]; Chen et al. 2016 or literature alignment, ref Chen et al. 2016): 3
- In vivo DILI ([10]; […]): +VE
- In vivo DILI ([10]; ref Albrecht 2019): +VE
- In vivo DILI ([10]; ref Aleo 2019): +VE
- In vivo DILI ([10]; ref Dawson 2012): +VE
- In vivo DILI ([10]; ref Garside 2014): +VE
- In vivo DILI ([10]; ref Gustafsson 2014): +VE
- In vivo DILI ([10]; ref Porceddu 2012): +VE
- In vivo DILI ([10]; ref Proctor 2017): +VE
- In vivo DILI ([10]; ref Schadt 2015): +VE
- In vivo DILI ([10]; ref Tolosa 2012): +VE
- In vivo DILI ([10]; ref Williams 2019): +VE
- Cytotoxicity PHH 48 hrs (PHH [11]): +VE
- THLE-Null [12]: -VE
- THLE-Null/3A4 [12]: -VE
- Cluster 1-6 +VE Assay [13]: -VE
- in vitro data EC2<=1x Cmax [14, 20]: +VE
- in vitro data EC20<=2uM [14, 20]: +VE
- DILI Score (FDA) (1-8) [15]: 7
- Inhibition of rBsep cutoff<1& cmax u>.2 (rBsep): -VE
- Inhibition of rBsep cutoff<3 (rBsep): -VE
- AC50 (hLiMTs [16]; read-out: ATP endpoint AC50): 145 µM
- minimal effective concentration (hLiMTs [16]; read-out: ATP endpoint MEC): 73.6 µM
- AC50 (hLiMTs [16]; read-out: HCS endpoint AC50): 226 µM
- minimal effective concentration (hLiMTs [16]; read-out: HCS endpoint MEC): 109 µM
- DILI prediction hLiMTs (HCS-MEC) (hLiMTs [16]; [21]): +VE (MEC < 25 × Cmax.tot cut-off)
- hLiMTs <25x Avg Cmax ATP (hLiMTs [16]; hLiMTs, ATP endpoint, cut-off <25x Avg Cmax): +ve
- hLiMTs <100x Avg Cmaxu ATP (hLiMTs [16]; hLiMTs, ATP endpoint, cut-off <100x Avg Cmaxu): +ve (<100x Avg Cmaxu)
- hLiMTs <25x Avg Cmax HCS (hLiMTs [16]; hLiMTs, HCS endpoints, cut-off <25x Avg Cmax): +ve
- hLiMTs <100x Avg Cmaxu HCS (hLiMTs [16]; hLiMTs, HCS endpoints, cut-off <100x Avg Cmaxu): +ve (<100x Avg Cmaxu)
- hLiMTs <25x Avg Cmax All (hLiMTs [16]; hLiMTs, all endpoints (ATP and HCS), cut-off <25x Avg Cmax): +ve
- hLiMTs Cmax max All (hLiMTs [16]; hLiMTs, all endpoints, Cmax max used): +ve
- hLiMTs Cmax min All (hLiMTs [16]; hLiMTs, all endpoints, Cmax min used): +ve
- hLiMTs <10 uM All (hLiMTs [16]; hLiMTs, all endpoints, cut-off <10 uM): -ve
- hLiMTs <100x Avg Cmaxu All (hLiMTs [16]; hLiMTs, all endpoints, cut-off <100x Avg Cmaxu): +ve (<100x Avg Cmaxu)
- HepaRG <25x Avg Cmax ATP (HepaRG spheroids; HepaRG, ATP endpoint, cut-off <25x Avg Cmax): +ve
- HepaRG <100x Avg Cmaxu ATP (HepaRG spheroids; HepaRG, ATP endpoint, cut-off <100x Avg Cmaxu): +ve (<100x Avg Cmaxu)
- HepaRG <25x Avg Cmax HCS (HepaRG spheroids; HepaRG, HCS endpoints, cut-off <25x Avg Cmax): +ve
- HepaRG <100x Avg Cmaxu HCS (HepaRG spheroids; HepaRG, HCS endpoints, cut-off <100x Avg Cmaxu): +ve (<100x Avg Cmaxu)
- HepaRG <25x Avg Cmax All (HepaRG spheroids; HepaRG, all endpoints (ATP and HCS), cut-off <25x Avg Cmax): +ve
- HepaRG Cmax max All (HepaRG spheroids; HepaRG, all endpoints, Cmax max used): +ve
- HepaRG Cmax min All (HepaRG spheroids; HepaRG, all endpoints, Cmax min used): +ve
- HepaRG <10 uM All (HepaRG spheroids; HepaRG, all endpoints, cut-off <10 uM): -ve
- HepaRG <100x Avg Cmaxu All (HepaRG spheroids; HepaRG, all endpoints, cut-off <100x Avg Cmaxu): +ve (<100x Avg Cmaxu)
- AC50 (HepaRG spheroids; HepaRG, read-out: ATP endpoint AC50): 159 µM
- minimal effective concentration (HepaRG spheroids; HepaRG, read-out: ATP endpoint MEC): 81.5 µM
- AC50 (HepaRG spheroids; HepaRG, read-out: HCS endpoint AC50): 343 µM
- minimal effective concentration (HepaRG spheroids; HepaRG, read-out: HCS endpoint MEC): 172 µM
- DILI prediction HepaRG spheroids (HCS-MEC) (HepaRG spheroids; [21]): +VE (MEC < 25 × Cmax.tot cut-off)

Structure (SMILES): O=C(O)c1cn(C2CC2)c2cc(N3CCNCC3)c(F)cc2c1=O [ciprofloxacin]
- HMPCC's (hu-MPCC): +VE
- in vitro data EC20<=2uM [14]: -VE
- RMPCC's (RMPCC's): +VE
